This test has as its system MV-4-11 cells. Nature of the test: Gene expression microarray analysis (Affymetrix PrimeView) and GSEA. The format is cell-based, human. Details: RFU PODN (11730768_x_at) / Fold change /veh PODN (11730768_x_at) / RFU LINC00158 (11744669_a_at) / Fold change /veh LINC00158 (11744669_a_at) / RFU DUSP10 (11751237_a_at) / Fold change /veh DUSP10 (11751237_a_at) / RFU ID3 (11757404_x_at) / Fold change /veh ID3 (11757404_x_at) / RFU PLEKHG5 (11737974_s_at) / Fold change /veh PLEKHG5 (11737974_s_at) / RFU LRRC4B (11730491_at) / Fold change /veh LRRC4B (11730491_at) / RFU GIMAP4 (11747438_a_at) / Fold change /veh GIMAP4 (11747438_a_at) / RFU KRT8 (11758183_x_at) / Fold change /veh KRT8 (11758183_x_at) / RFU CNN1 (11734310_a_at) / Fold change /veh CNN1 (11734310_a_at) / RFU VPS37D (11726825_at) / Fold change /veh VPS37D (11726825_at) / RFU C10orf10 (11716522_x_at) / Fold change /veh C10orf10 (11716522_x_at) / RFU KIR2DL2 /// KIR2DL4 /// KIR2DL5A /// KIR2DL5B /// KIR2DS1 /// KIR2DS2 /// KIR2DS3 /// KIR2DS4 /// KIR3DL3 /// KIR3DL3 /// KIR3DS1 (11738374_at) / Fold change /veh KIR2DL2 /// KIR2DL4 /// KIR2DL5A /// KIR2DL5B /// KIR2DS1 /// KIR2DS2 /// KIR2DS3 /// KIR2DS4 /// KIR3DL3 /// KIR3DL3 /// KIR3DS1 (11738374_at) / RFU C1QL1 (11718748_at) / Fold change /veh C1QL1 (11718748_at) / RFU TMPRSS4 (11747572_a_at) / Fold change /veh TMPRSS4 (11747572_a_at) / RFU HAMP (11756126_x_at) / Fold change /veh HAMP (11756126_x_at) / RFU RNFT2 (11725882_a_at) / Fold change /veh RNFT2 (11725882_a_at) / RFU NR4A2 (11747474_a_at) / Fold change /veh NR4A2 (11747474_a_at) / RFU ABCC12 (11746883_a_at) / Fold change /veh ABCC12 (11746883_a_at) / RFU TMEM136 (11760407_x_at) / Fold change /veh TMEM136 (11760407_x_at) / RFU CLDN22 /// WWC2 (11732394_at) / Fold change /veh CLDN22 /// WWC2 (11732394_at) / RFU HLA-DPB1 (11760878_x_at) / Fold change /veh HLA-DPB1 (11760878_x_at) / RFU SPINT1 (11716480_a_at) / Fold change /veh SPINT1 (11716480_a_at) / RFU GAP43 (11754022_s_at) / Fold change /veh GAP43 (11754022_s_at) / RFU A4GNT (11735810_at) / Fold change /veh A4GNT (11735810_at) / RFU PRB3 (11715151_x_at) / Fold change /veh PRB3 (11715151_x_at) / RFU TUBB4B (11761932_at) / Fold change /veh TUBB4B (11761932_at) / RFU CAPN14 (11732068_a_at) / Fold change /veh CAPN14 (11732068_a_at) / RFU TMCC2 (11721928_a_at) / Fold change /veh TMCC2 (11721928_a_at) / RFU IRGQ (11745062_a_at) / Fold change /veh IRGQ (11745062_a_at) / RFU FAM174B (11720279_a_at) / Fold change /veh FAM174B (11720279_a_at) / RFU TMPRSS4 (11748680_a_at) / Fold change /veh TMPRSS4 (11748680_a_at) / RFU FAM212B (11763350_a_at) / Fold change /veh FAM212B (11763350_a_at) / RFU PLEKHG5 (11743358_a_at) / Fold change /veh PLEKHG5 (11743358_a_at) / RFU ZSCAN30 (11745921_a_at) / Fold change /veh ZSCAN30 (11745921_a_at) / RFU CMKLR1 (11741424_a_at) / Fold change /veh CMKLR1 (11741424_a_at) / RFU LOC101060620 /// MAPK8IP1 (11723275_at) / Fold change /veh LOC101060620 /// MAPK8IP1 (11723275_at) / RFU SPTSSB (11747773_x_at) / Fold change /veh SPTSSB (11747773_x_at) / RFU PRSS12 (11739890_at) / Fold change /veh PRSS12 (11739890_at) / RFU BIN1 (11741810_x_at) / Fold change /veh BIN1 (11741810_x_at) / RFU WNT11 (11732464_a_at) / Fold change /veh WNT11 (11732464_a_at) / RFU C10orf10 (11716521_a_at) / Fold change /veh C10orf10 (11716521_a_at) / RFU C5orf56 (11738089_at) / Fold change /veh C5orf56 (11738089_at) / RFU CYB561 (11721691_x_at) / Fold change /veh CYB561 (11721691_x_at) / RFU ANKRD19P (11752326_a_at) / Fold change /veh ANKRD19P (11752326_a_at) / RFU OR2T12 /// OR2T33 /// OR2T8 (11738714_s_at) / Fold change /veh OR2T12 /// OR2T33 /// OR2T8 (11738714_s_at) / RFU VCAN (11748164_a_at) / Fold change /veh VCAN (11748164_a_at) / RFU JSRP1 (11732532_at) / Fold change /veh JSRP1 (11732532_at) / RFU KRTAP10-11 (11738290_x_at) / Fold change /veh KRTAP10-11 (11738290_x_at) / RFU MYO3A (11730013_a_at) / Fold change /veh MYO3A (11730013_a_at) / RFU EBF3 (11725865_a_at) / Fold change /veh EBF3 (11725865_a_at) / RFU CAMK2N1 (11719241_x_at) / Fold change /veh CAMK2N1 (11719241_x_at) / RFU C5orf56 (11738088_a_at) / Fold change /veh C5orf56 (11738088_a_at) / RFU OLFML3 (11715873_a_at) / Fold change /veh OLFML3 (11715873_a_at) / RFU LOC100653217 /// NTM (11731650_a_at) / Fold change /veh LOC100653217 /// NTM (11731650_a_at) / RFU MAPK11 (11762145_a_at) / Fold change /veh MAPK11 (11762145_a_at) / RFU FIZ1 (11724087_x_at) / Fold change /veh FIZ1 (11724087_x_at) / RFU OASL (11726364_x_at) / Fold change /veh OASL (11726364_x_at) / RFU SOX15 (11748057_x_at) / Fold change /veh SOX15 (11748057_x_at) / RFU CD79A (11719716_a_at) / Fold change /veh CD79A (11719716_a_at) / RFU HIST1H1D (11736915_at) / Fold change /veh HIST1H1D (11736915_at) / RFU CASKIN2 (11723855_a_at) / Fold change /veh CASKIN2 (11723855_a_at) / RFU LOC730098 (11760151_x_at) / Fold change /veh LOC730098 (11760151_x_at) / RFU OR4N2 (11742367_at) / Fold change /veh OR4N2 (11742367_at) / RFU PRRT2 (11749266_a_at) / Fold change /veh PRRT2 (11749266_a_at) / RFU SNX32 (11753110_a_at) / Fold change /veh SNX32 (11753110_a_at) / RFU CDHR5 (11726645_a_at) / Fold change /veh CDHR5 (11726645_a_at) / RFU RCAN1 (11760418_a_at) / Fold change /veh RCAN1 (11760418_a_at) / RFU FAM167A (11723789_a_at) / Fold change /veh FAM167A (11723789_a_at) / RFU FAM26E (11764081_at) / Fold change /veh FAM26E (11764081_at) / RFU ISYNA1 (11749810_s_at) / Fold change /veh ISYNA1 (11749810_s_at) / RFU ACY1 (11761880_at) / Fold change /veh ACY1 (11761880_at) / RFU 11764098_at / Fold change /veh 11764098_at / RFU SAMD14 (11745864_x_at) / Fold change /veh SAMD14 (11745864_x_at) / RFU NPB (11741838_a_at) / Fold change /veh NPB (11741838_a_at) / RFU TMPRSS6 (11731388_a_at) / Fold change /veh TMPRSS6 (11731388_a_at) / RFU KRTAP10-2 (11738614_at) / Fold change /veh KRTAP10-2 (11738614_at) / RFU ARHGAP8 /// PRR5-ARHGAP8 (11727945_x_at) / Fold change /veh ARHGAP8 /// PRR5-ARHGAP8 (11727945_x_at) / RFU KRTAP5-7 /// NADSYN1 (11734609_at) / Fold change /veh KRTAP5-7 /// NADSYN1 (11734609_at) / RFU RASL12 (11751679_a_at) / Fold change /veh RASL12 (11751679_a_at) / RFU CDKN2B (11736163_a_at) / Fold change /veh CDKN2B (11736163_a_at) / RFU PRF1 (11729649_at) / Fold change /veh PRF1 (11729649_at) / RFU, ZNF638 /// ZNF638-IT1 / Fold change vs veh, ZNF638 /// ZNF638-IT1 / RFU, PANK3 / Fold change vs veh, PANK3 / RFU, SH3YL1 / Fold change vs veh, SH3YL1 / RFU, ZEB2 / Fold change vs veh, ZEB2 / RFU, NRIP1 / Fold change vs veh, NRIP1 / RFU, PTTG1IP / Fold change vs veh, PTTG1IP / RFU, CAPN2 / Fold change vs veh, CAPN2 / RFU, MED14 / Fold change vs veh, MED14 / RFU, SNORA58 / Fold change vs veh, SNORA58 / RFU, C1orf63 / Fold change vs veh, C1orf63 / RFU, LRRFIP1 / Fold change vs veh, LRRFIP1 / RFU, NDUFAF7 / Fold change vs veh, NDUFAF7 / RFU, SLC12A2 / Fold change vs veh, SLC12A2 / RFU, IBTK / Fold change vs veh, IBTK / RFU, ESF1 / Fold change vs veh, ESF1 / Fold change vs veh, TMEM50B / RFU, TAOK1 / Fold change vs veh, TAOK1 / RFU, ACBD3 / Fold change vs veh, ACBD3 / RFU, TMA16 / Fold change vs veh, TMA16 / RFU, RWDD3 / Fold change vs veh, RWDD3 / RFU, BCAT1 / Fold change vs veh, BCAT1 / RFU, EDEM3 / Fold change vs veh, EDEM3 / RFU, TMEM33 / Fold change vs veh, TMEM33 / RFU, WDR75 / Fold change vs veh, WDR75 / RFU, AHCTF1 / Fold change vs veh, AHCTF1 / RFU, TFRC / Fold change vs veh, TFRC / RFU, ZDHHC17 / Fold change vs veh, ZDHHC17 / RFU, NOM1 / Fold change vs veh, NOM1 / RFU, ARL8B / Fold change vs veh, ARL8B / RFU, ZBTB11 / Fold change vs veh, ZBTB11 / RFU, TAMM41 / Fold change vs veh, TAMM41 / RFU, KIAA1704 /// LOC100996395 / Fold change vs veh, KIAA1704 /// LOC100996395 / RFU, ING1 / Fold change vs veh, ING1 / RFU, TRMT61B / Fold change vs veh, TRMT61B / RFU, FUBP3 / Fold change vs veh, FUBP3 / RFU, TP53 / Fold change vs veh, TP53 / RFU, TNKS2 / Fold change vs veh, TNKS2 / RFU, ZFP14 / Fold change vs veh, ZFP14 / RFU, ACTR2 / Fold change vs veh, ACTR2 / RFU, PPP3R1 / Fold change vs veh, PPP3R1 / RFU, PIK3R1 / Fold change vs veh, PIK3R1 / RFU, HNRNPA1 / Fold change vs veh, HNRNPA1 / RFU, RNF170 / Fold change vs veh, RNF170 / RFU, ZNF28 / Fold change vs veh, ZNF28 / RFU, RNGTT / Fold change vs veh, RNGTT / RFU, OGT / Fold change vs veh, OGT / RFU, BRD1 / Fold change vs veh, BRD1 / RFU, MARS / Fold change vs veh, MARS / RFU, ZNF655 / Fold change vs veh, ZNF655 / RFU, FAHD1 / Fold change vs veh, FAHD1 / RFU, BDP1 / Fold change vs veh, BDP1 / RFU, LRRCC1 / Fold change vs veh, LRRCC1 / RFU, ARID1A / Fold change vs veh, ARID1A / RFU, ZNF146 / Fold change vs veh, ZNF146 / RFU, ZNF330 / Fold change vs veh, ZNF330 / RFU, GPN3 / Fold change vs veh, GPN3 / RFU, C9orf123 / Fold change vs veh, C9orf123 / RFU, N4BP2L2 / Fold change vs veh, N4BP2L2 / RFU, ARFIP1 / Fold change vs veh, ARFIP1 / RFU, FAM179B / Fold change vs veh, FAM179B / RFU, BCL10 / Fold change vs veh, BCL10 / RFU, UHRF1BP1L / Fold change vs veh, UHRF1BP1L / RFU, BET1 / Fold change vs veh, BET1 / RFU, CNOT2 / Fold change vs veh, CNOT2 / RFU, ZNF268 / Fold change vs veh, ZNF268 / Fold change vs veh, ZNF507 / RFU, DGCR2 / Fold change vs veh, DGCR2 / RFU, WDSUB1 / Fold change vs veh, WDSUB1 / Fold change vs veh, HSP90B1 /// MIR3652 / RFU, ADSS / Fold change vs veh, ADSS / RFU, GK / Fold change vs veh, GK / RFU, ZNF148 / Fold change vs veh, ZNF148 / RFU, TAF9 / Fold change vs veh, TAF9 / RFU, SLC1A5 / Fold change vs veh, SLC1A5 / RFU, SLMO2 / Fold change vs veh, SLMO2 / RFU, ABCC4 / Fold change vs veh, ABCC4 / RFU, LOC101060439 /// RAP1B / Fold change vs veh, LOC101060439 /// RAP1B / RFU, RFX7 / Fold change vs veh, RFX7 / RFU, GTPBP10 / Fold change vs veh, GTPBP10 / RFU, CNEP1R1 / Fold change vs veh, CNEP1R1 / RFU, BIVM-ERCC5 /// ERCC5 / Fold change vs veh, BIVM-ERCC5 /// ERCC5 / RFU, ILF3 / Fold change vs veh, ILF3 / RFU 11762660_at / Fold change /veh 11762660_at / RFU VCAN (11757783_s_at) / Fold change /veh VCAN (11757783_s_at) / RFU DDX43 (11728927_at) / Fold change /veh DDX43 (11728927_at) / RFU KRT8 (11758188_x_at) / Fold change /veh KRT8 (11758188_x_at) / RFU NKD1 (11759106_at) / Fold change /veh NKD1 (11759106_at) / RFU SRD5A1 (11742802_a_at) / Fold change /veh SRD5A1 (11742802_a_at) / RFU TPSAB1 /// TPSB2 (11721975_s_at) / Fold change /veh TPSAB1 /// TPSB2 (11721975_s_at) / RFU GSTM3 (11746129_a_at) / Fold change /veh GSTM3 (11746129_a_at) / RFU IL23R (11737362_x_at) / Fold change /veh IL23R (11737362_x_at) / RFU TMEM51 (11727254_a_at) / Fold change /veh TMEM51 (11727254_a_at) / RFU PIWIL2 (11732686_x_at) / Fold change /veh PIWIL2 (11732686_x_at) / RFU ORM1 (11744905_x_at) / Fold change /veh ORM1 (11744905_x_at) / RFU CCDC152 (11743942_at) / Fold change /veh CCDC152 (11743942_at) / RFU ECM1 (11717891_a_at) / Fold change /veh ECM1 (11717891_a_at) / RFU IL23R (11748794_a_at) / Fold change /veh IL23R (11748794_a_at) / RFU TNFAIP8L3 (11732012_x_at) / Fold change /veh TNFAIP8L3 (11732012_x_at) / RFU MBOAT4 (11741988_at) / Fold change /veh MBOAT4 (11741988_at) / RFU 11764193_at / Fold change /veh 11764193_at / RFU TMEM53 (11763286_at) / Fold change /veh TMEM53 (11763286_at) / RFU MAGEB2 (11727129_at) / Fold change /veh MAGEB2 (11727129_at) / RFU TMEM200A (11744735_a_at) / Fold change /veh TMEM200A (11744735_a_at) / RFU CCDC152 (11751479_a_at) / Fold change /veh CCDC152 (11751479_a_at) / RFU FAM211A (11726209_a_at) / Fold change /veh FAM211A (11726209_a_at) / RFU RGS16 (11746705_a_at) / Fold change /veh RGS16 (11746705_a_at) / RFU VCAN (11755009_s_at) / Fold change /veh VCAN (11755009_s_at) / RFU RHOB (11743442_s_at) / Fold change /veh RHOB (11743442_s_at) / RFU RGS16 (11720943_a_at) / Fold change /veh RGS16 (11720943_a_at) / RFU RGS16 (11720944_at) / Fold change /veh RGS16 (11720944_at) / RFU, VPS4B / Fold change vs veh, VPS4B / RFU, CREB1 / Fold change vs veh, CREB1 / RFU, DNAJC13 / Fold change vs veh, DNAJC13 / RFU, GNAQ / Fold change vs veh, GNAQ / RFU, CDK5R1 / Fold change vs veh, CDK5R1 / RFU, ZRANB3 / Fold change vs veh, ZRANB3 / RFU, CUL4A / Fold change vs veh, CUL4A / RFU, CCNY / Fold change vs veh, CCNY / RFU, UFL1 / Fold change vs veh, UFL1 / RFU, COG3 / Fold change vs veh, COG3 / RFU, DIAPH2 / Fold change vs veh, DIAPH2 / RFU, SKA2 / Fold change vs veh, SKA2 / RFU, AFF3 / Fold change vs veh, AFF3 / RFU, LMF1 / Fold change vs veh, LMF1 / RFU, IPO11 / Fold change vs veh, IPO11 / RFU, DFFB / Fold change vs veh, DFFB / RFU, FOXP1 / Fold change vs veh, FOXP1 / RFU, CARD8 / Fold change vs veh, CARD8 / RFU, STRN3 / Fold change vs veh, STRN3 / RFU, ADK / Fold change vs veh, ADK / RFU, RASSF2 / Fold change vs veh, RASSF2 / RFU, WIPF1 / Fold change vs veh, WIPF1 / RFU, LARP1B / Fold change vs veh, LARP1B / RFU, RASA1 / Fold change vs veh, RASA1 / RFU, RB1 / Fold change vs veh, RB1 / RFU, PPFIA1 / Fold change vs veh, PPFIA1 / RFU, MAT2A / Fold change vs veh, MAT2A / RFU, CCT5 / Fold change vs veh, CCT5 / RFU, WDR92 / Fold change vs veh, WDR92 / RFU, CUX1 / Fold change vs veh, CUX1 / RFU, TTC7A / Fold change vs veh, TTC7A / RFU, TMEM135 / Fold change vs veh, TMEM135 / RFU, DEPTOR / Fold change vs veh, DEPTOR / RFU, CPM / Fold change vs veh, CPM / RFU, DNAJB6 / Fold change vs veh, DNAJB6 / RFU, CACNA2D3 / Fold change vs veh, CACNA2D3 / RFU, DTX4 / Fold change vs veh, DTX4 / RFU, TFCP2 / Fold change vs veh, TFCP2 / RFU, GMCL1 /// GMCL1P1 / Fold change vs veh, GMCL1 /// GMCL1P1 / RFU, AEBP2 / Fold change vs veh, AEBP2 / RFU, SNHG1 /// SNORD22 /// SNORD25 /// SNORD26 /// SNORD27 /// SNORD28 /// SNORD29 /// SNORD31 / Fold change vs veh, SNHG1 /// SNORD22 /// SNORD25 /// SNORD26 /// SNORD27 /// SNORD28 /// SNORD29 /// SNORD31 / Fold change (Aza/veh), C12orf56 (ProbeSet 11735607_a_at) / Fold change (ACY-1035/veh), C12orf56 (ProbeSet 11735607_a_at) / Fold change (Aza/veh), FGFR1OP (ProbeSet 11751329_s_at) / Fold change (ACY-1035/veh), FGFR1OP (ProbeSet 11751329_s_at) / Fold change (Aza/veh), VPS36 (ProbeSet 11739960_a_at) / Fold change (ACY-1035/veh), VPS36 (ProbeSet 11739960_a_at) / RFU SYPL1 (11715823_x_at) / Fold change /veh SYPL1 (11715823_x_at) / RFU IGFBP7 (11715501_s_at) / Fold change /veh IGFBP7 (11715501_s_at) / RFU REEP3 (11722064_at) / Fold change /veh REEP3 (11722064_at) / RFU IGLL1 (11728026_x_at) / Fold change /veh IGLL1 (11728026_x_at): dose or concentration left out as unconfirmed. The conditions noted are these: ProbeSet 11729173_a_at; LIST D.

With `Nc1ccc(-c2cccs2)cc1NC(=O)c1ccc2c(c1)cc(C1CC1)n2CCN1CCOCC1` [ACY-1035], the “Fold change vs veh, SKA2” value came out at 0.84.

These data come from article PMC5218480 (PLoS ONE, 2017).
